Assay results taken from patent publication US11125741B2, “Compositions and methods for the detection of zinc” (Northwestern University, priority 2012, dated 2021).

What was measured:
[1] = pM reflects the log of the free ion concentration; cited from earlier work
[2] = test system: mouse eggs; experiment: TPEN treatment and spindle imaging of mouse eggs; format: cell-based; conditions: 10 μM, 8 hrs of culture
Experimental: FIGS. 12a-e show perturbation of intracellular zinc availability causes activation of the egg. Following 8 hours of culture, control eggs maintain a metaphase II spindle (a, sp) with individual chromosomes aligned at the metaphase plate (b). In contrast, eggs exposed to 10 μM TPEN for the same period artificially activate as indicated by the formation of an intact pronucleus (c, pn) with decondensed chromatin surrounding a nucleolus (d).
TPEN treatment and spindle imaging of mouse eggs. Superovulated eggs were collected and transferred to KSOM medium (Millipore) with or without 10 μM TPEN and cultured up to 8 hrs at 37° C. in an atmosphere of 5% CO2 in air. […] Eggs were fixed and permeabilized for 30 min at 37° C. in a solution containing 2% formaldehyde, 2% Triton X-100, 100 mM PIPES, 5 mM MgCl2, and 2.4 mM EGTA. Eggs were then washed and blocked for 1-3 hrs in 1× PBS containing 0.1 M glycine, 3 mg/mL BSA, 0.01% Tween-20, and 0.01% sodium azide followed by incubation with […] (1:100, Sigma) in blocking buffer for 1 hr at 37° C. Eggs were washed again in blocking buffer, incubated in Alexa Fluor 488-conjugated goat anti-mouse IgG (Invitrogen) and rhodamine-phalloidin conjugate (Invitrogen) at 37° C. for 1 hr, washed three additional times, and mounted on microscopy slides with coverslips in Vectashield with DAPI. […]

[3] = test system: mouse eggs; experiment: Time-lapse imaging of zinc sparks and calcium transients in parthenogenetically activated eggs; format: cell-based
Experimental: Time-lapse imaging of parthenogenetically activated eggs. Eggs were first incubated in 10 μM Calcium Green-1 AM (Invitrogen) and 0.04% (w/v) Pluronic F-127 (Invitrogen) for either 30 min (mouse) or 60 min (non-human primate) at 37° C. Mouse eggs were washed in calcium-free KSOM (Millipore) and transferred to a 50 μl drop containing 10 mM SrCl2 (Sigma-Aldrich) and 50 μM FluoZin-3 (Invitrogen) on a glass-bottom dish (Bioptechs Inc.). Non-human primate eggs were transferred to one end of a long and shallow drop (20 μl) of calcium-free KSOM (Millipore) containing 50 μM FluoZin-3 (Invitrogen) on a glass-bottom dish (Bioptechs Inc.), covered with oil for embryo culture (Irvine Scientific, Santa Ana, Calif.). Ionomycin was perfused in at the opposite end to a final concentration of 20 μM. In both cases, image acquisition began immediately and occurred every 4 s for a total of 1-3 hours (mouse) or 15 min (non-human primate), unless noted otherwise. All images were acquired on a TCS SP5 confocal microscope (Leica Microsystems) equipped with a stage top incubator (Tokai Hit), 20× objective, and an Ar (488 nm) laser line.
Additional experiments were consistent with this determination. […] Second, zinc sparks were absent in eggs treated with the membrane permeable acetoxymethyl ester (AM) derivative of 1,2-bis(o-aminophenoxy)ethane-N,N,N′,N′-tetraacetic acid (BAPTA).
The polarization of the zinc-enriched vesicles mirrors that of the cortical granules (CG), which are exocytic vesicles that participate in the cortical reaction, which involves the hardening of the zona pellucida to establish a block to polyspermy at fertilization (Ducibella. (1996) Hum Reprod Update 2, 29-42.; herein incorporated by reference in its entirety). […] In most cases, subsequent sparks were inhibited (SEE FIG. 9). Experiments conducted during development of embodiments of the present invention indicate that zinc-containing vesicles are pre-fused with the egg membrane, allowing the first spark to occur even in the presence of CytoB. This type of phenomenon has been described for cortical granules in the sea urchin egg, where one subset of CGs are in a hemifused state prior to activation21.

[4] = test system: activated mouse eggs; conditions: 10 μM, 10 min at 1.5 hpa
[5] = Gee et al. 2002; cited from earlier work
[6] = treated prior to strontium chloride activation

carbonic anhydrase
pM value [1]: 12.4

CCOC(=O)COc1cc(NS(=O)(=O)c2ccc(C)cc2)c2nc(C)ccc2c1 [zinquin ethyl ester]
pM value [1]: 9.3

c1ccc(CN(CCN(Cc2ccccn2)Cc2ccccn2)Cc2ccccn2)nc1 [TPEN]
egg activation (pronucleus-like structure) [2]: had a pronucleus-like structure at significantly higher rates | zinc sparks in zinc-insufficient eggs ([3]; oocytes treated during in vitro maturation, then activated): did not undergo zinc sparks

CC(=O)OCOC(=O)CN(CC(=O)OCOC(C)=O)c1ccccc1OCCOc1ccccc1N(CC(=O)OCOC(C)=O)CC(=O)OCOC(C)=O [BAPTA AM]
parthenogenetic activation on long-term exposure ([3]; 10 μM): did not parthenogenetically activate eggs | calcium transients and zinc sparks ([3]; extended culture in strontium chloride): both calcium transients and zinc sparks were absent | second polar body extrusion and pronucleus formation ([3]; strontium chloride activation): did not extrude a second polar body or form a pronucleus

zinc pyrithione [ZnPT]
eggs lacking a pronucleus with aligned chromosomes [4]: eighty-four | eggs that formed a pronucleus ([4]; scored 6-8 hpa): seventeen

COc1ccc(N(CC(=O)O)CC(=O)O)c(OCCOc2cc(-c3c4cc(F)c(=O)cc-4oc4cc(O)c(F)cc34)ccc2NCC(=O)O)c1 [FluoZin-3]
fluorescence turn-on for Zn [5]: 80 fold

C=C1[C@@H](C)[C@H]2[C@H](Cc3ccccc3)NC(=O)[C@]23OC(=O)/C=C/[C@H](O)CCC[C@@H](C)C/C=C/[C@H]3[C@@H]1O [CytoB, cytochalasin B]
calcium oscillations upon activation [3, 6]: normal calcium oscillations | zinc sparks upon activation [3, 6]: only exhibit a single zinc spark
